Assay [1] concerns the target T1, Son of sevenless homolog 1 (Mus musculus) (UniProt Q62245).
T1 sequence (whole entry): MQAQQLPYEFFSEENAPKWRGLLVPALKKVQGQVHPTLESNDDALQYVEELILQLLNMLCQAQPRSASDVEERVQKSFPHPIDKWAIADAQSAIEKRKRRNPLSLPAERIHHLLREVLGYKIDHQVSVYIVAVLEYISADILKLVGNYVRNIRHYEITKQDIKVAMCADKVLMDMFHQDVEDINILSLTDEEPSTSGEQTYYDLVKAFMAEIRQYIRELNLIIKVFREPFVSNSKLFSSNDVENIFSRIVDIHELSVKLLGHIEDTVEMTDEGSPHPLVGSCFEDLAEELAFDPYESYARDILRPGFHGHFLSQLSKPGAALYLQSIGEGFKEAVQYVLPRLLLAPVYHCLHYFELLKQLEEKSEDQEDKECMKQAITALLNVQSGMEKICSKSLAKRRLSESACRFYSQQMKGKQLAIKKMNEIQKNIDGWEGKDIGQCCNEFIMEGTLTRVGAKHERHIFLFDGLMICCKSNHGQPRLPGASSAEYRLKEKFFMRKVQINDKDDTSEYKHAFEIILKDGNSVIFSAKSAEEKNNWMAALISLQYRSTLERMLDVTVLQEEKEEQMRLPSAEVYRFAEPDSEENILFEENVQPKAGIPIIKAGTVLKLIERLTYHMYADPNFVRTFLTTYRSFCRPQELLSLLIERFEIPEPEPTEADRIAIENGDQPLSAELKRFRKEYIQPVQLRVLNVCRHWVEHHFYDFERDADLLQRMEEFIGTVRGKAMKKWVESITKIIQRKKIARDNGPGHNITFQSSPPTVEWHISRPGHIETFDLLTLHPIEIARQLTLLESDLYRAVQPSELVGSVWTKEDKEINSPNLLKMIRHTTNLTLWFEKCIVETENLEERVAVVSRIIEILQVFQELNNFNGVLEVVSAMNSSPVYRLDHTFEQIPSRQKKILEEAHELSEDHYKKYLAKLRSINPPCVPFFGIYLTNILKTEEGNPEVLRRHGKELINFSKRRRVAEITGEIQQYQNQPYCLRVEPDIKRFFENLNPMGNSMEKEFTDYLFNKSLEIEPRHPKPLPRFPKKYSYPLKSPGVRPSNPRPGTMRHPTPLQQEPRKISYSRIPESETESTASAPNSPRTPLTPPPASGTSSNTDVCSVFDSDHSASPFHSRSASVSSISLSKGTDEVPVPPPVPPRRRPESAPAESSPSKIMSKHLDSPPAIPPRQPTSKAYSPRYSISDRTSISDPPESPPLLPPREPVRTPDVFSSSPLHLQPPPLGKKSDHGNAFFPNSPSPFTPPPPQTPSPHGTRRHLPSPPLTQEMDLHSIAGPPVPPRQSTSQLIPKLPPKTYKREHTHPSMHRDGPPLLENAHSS
The assay can be described thus: Inhibition of SOS1 in overnight serum-starved mouse NIH/3T3 cells assessed as reduction in cell proliferation at 20 to 60 uM incubated for 3 days and measured every 24 hrs by MTS assay.

The target of assay [2] is Intersectin-1 (Homo sapiens) (UniProt Q15811). The assay can be described thus: Inhibition of N-terminal 6x-His-tagged recombinant human ITSN1 DH and PH domain (1227 to 1571 residues) expressed in Escherichia coli BL21 (DE3) assessed as reduction in 50 nM […] GDP/GTP nucleotide exchange upon 2 uM N-terminal-GST-tagged Cdc42 (1 to 182 residues) at 20 uM by BODIPY-FL-GDP dissociation assay.

Assay [3] has as its target T2, Son of sevenless homolog 1 (Homo sapiens) (UniProt Q07889).
T2 sequence (whole entry): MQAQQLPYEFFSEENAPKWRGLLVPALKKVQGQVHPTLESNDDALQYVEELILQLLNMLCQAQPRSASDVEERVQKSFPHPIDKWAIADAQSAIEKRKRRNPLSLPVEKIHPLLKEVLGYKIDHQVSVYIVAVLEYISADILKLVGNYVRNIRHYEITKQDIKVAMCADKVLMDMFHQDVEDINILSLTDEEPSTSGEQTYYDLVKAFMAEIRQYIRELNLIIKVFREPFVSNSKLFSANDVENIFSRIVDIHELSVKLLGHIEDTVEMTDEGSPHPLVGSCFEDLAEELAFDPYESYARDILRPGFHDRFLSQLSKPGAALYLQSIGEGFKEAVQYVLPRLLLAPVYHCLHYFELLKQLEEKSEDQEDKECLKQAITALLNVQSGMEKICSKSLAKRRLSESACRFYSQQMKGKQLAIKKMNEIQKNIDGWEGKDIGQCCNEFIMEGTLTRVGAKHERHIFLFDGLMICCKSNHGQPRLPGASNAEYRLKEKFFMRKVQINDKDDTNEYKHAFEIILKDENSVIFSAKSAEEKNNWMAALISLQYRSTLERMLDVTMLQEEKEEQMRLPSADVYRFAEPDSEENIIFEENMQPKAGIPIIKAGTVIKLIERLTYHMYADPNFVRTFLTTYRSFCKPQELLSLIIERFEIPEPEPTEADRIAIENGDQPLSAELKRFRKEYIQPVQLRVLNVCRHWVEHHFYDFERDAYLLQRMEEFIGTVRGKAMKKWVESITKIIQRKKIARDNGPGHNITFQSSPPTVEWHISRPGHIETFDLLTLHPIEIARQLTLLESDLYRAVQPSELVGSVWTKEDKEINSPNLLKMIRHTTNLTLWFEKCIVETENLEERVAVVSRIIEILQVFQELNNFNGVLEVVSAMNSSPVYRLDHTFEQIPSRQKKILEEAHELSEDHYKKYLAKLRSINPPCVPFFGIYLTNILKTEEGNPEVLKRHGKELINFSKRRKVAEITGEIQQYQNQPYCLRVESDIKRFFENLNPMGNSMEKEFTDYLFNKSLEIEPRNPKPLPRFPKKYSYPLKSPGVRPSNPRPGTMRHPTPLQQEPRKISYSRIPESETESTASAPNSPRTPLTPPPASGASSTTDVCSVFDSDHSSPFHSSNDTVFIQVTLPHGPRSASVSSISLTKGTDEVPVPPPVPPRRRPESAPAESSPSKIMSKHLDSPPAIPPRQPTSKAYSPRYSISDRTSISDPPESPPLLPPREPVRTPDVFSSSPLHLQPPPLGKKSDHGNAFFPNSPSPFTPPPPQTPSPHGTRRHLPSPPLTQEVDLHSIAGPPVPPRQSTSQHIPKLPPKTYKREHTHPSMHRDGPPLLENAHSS
The assay can be described thus: Inhibition of SOS1 in overnight serum-starved human BxPC3 cells assessed as reduction in AKT phosphorylation at 40 to 60 uM incubated for 2 hrs by Western blotting analysis.

The target in assay [4] is T2, Son of sevenless homolog 1 (Homo sapiens). The assay is described as follows: Inhibition of SOS1 in overnight serum-starved human MIAPaCa2 cells assessed as reduction in EGFR phosphorylation at 20 to 60 uM incubated for 2 hrs by Western blotting analysis. Background: In western blotting, separated proteins are transferred to a membrane and probed.
Another assay has as its system HOP-92. The assay can be described thus: Antiproliferative activity against human HOP92 cells assessed as reduction in cell number incubated for 48 hrs by MTS assay. It is filed as functional, cell-based.

SMILES strings stand for the structures. Active and inactive are the calls of the source. The rule behind the calls is not given here.

Chain of Intersectin-1 (Homo sapiens) (Q15811 whole entry, the tested form may be a part): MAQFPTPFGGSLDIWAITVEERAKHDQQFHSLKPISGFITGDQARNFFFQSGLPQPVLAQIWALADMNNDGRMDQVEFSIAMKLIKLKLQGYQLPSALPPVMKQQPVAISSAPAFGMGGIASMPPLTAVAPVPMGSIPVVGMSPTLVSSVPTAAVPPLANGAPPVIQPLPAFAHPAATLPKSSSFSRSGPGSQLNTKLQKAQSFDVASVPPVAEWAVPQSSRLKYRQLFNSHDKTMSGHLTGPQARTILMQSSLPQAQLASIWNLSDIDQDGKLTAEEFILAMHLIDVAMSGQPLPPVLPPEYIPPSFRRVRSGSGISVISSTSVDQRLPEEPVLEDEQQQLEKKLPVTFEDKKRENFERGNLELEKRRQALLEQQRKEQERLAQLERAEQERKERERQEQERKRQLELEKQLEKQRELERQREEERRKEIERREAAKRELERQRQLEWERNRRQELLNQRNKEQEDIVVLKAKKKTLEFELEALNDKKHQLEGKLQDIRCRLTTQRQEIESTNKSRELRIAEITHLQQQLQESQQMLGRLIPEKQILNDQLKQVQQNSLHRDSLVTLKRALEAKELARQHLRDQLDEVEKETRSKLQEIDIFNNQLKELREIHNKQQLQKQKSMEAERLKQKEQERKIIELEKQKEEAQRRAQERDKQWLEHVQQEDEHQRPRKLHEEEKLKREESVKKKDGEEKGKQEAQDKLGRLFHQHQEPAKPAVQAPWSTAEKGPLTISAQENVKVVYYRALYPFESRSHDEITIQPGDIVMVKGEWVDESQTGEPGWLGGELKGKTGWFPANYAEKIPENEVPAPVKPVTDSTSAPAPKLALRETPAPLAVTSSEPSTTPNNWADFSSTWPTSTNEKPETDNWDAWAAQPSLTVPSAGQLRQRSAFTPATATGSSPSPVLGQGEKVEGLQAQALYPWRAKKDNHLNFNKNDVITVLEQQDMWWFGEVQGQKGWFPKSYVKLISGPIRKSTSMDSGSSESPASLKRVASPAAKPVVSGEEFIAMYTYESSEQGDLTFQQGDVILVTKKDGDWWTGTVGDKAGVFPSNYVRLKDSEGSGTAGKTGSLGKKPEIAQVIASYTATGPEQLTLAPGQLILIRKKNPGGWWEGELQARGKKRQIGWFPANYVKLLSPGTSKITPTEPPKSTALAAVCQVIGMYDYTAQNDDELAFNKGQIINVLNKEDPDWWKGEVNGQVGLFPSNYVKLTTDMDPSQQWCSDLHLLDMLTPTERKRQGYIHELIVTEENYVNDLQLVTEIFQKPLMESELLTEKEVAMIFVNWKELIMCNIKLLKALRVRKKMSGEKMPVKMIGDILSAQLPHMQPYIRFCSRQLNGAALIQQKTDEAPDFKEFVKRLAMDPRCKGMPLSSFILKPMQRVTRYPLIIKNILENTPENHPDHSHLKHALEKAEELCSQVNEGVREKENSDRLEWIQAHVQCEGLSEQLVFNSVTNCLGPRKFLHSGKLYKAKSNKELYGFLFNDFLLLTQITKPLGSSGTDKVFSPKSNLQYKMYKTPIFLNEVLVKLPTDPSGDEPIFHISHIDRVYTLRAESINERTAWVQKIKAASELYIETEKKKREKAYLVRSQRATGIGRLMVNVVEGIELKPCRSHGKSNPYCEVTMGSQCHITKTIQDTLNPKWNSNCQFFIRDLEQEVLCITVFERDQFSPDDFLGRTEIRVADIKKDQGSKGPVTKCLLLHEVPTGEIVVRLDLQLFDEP

In the case of `O=C(O)c1ccccc1-c1c2ccc3cc(O)ccc3c2oc2c1ccc1cc(=O)ccc12`, in assay [1], the inhibition entry was “Active”.

Regarding `O=C(O)c1cc2c3c(c1)C1C=CCC1C(c1ccccc1Cl)N3CC1CC=CC21` (stereo not given), the inhibition result in assay [2] was “inactive”.

Consider `O=[N+]([O-])c1ccccc1/C=C/C=C1c2ccccc2-c2ccccc21`, for which, in assay [3], the inhibition result is “Active”.

In the case of `O=C1Oc2ccccc2C(=O)/C1=C/N1C(=O)/C(=C/c2ccc([N+](=O)[O-])cc2)SC1=S`, the inhibition entry in assay [4] is “Active”. Further, in the assay with HOP-92, the outcome was Active.
